According to the supplement of paper PMC5770543:
± gives the standard deviation.

How the values were obtained:
[1] = system: Plasmodium falciparum 3D7; test: EC50 growth inhibition (60 h, SYBR Green); conditions: stage: ring-stage start
[2] = system: Toxoplasma gondii RH tachyzoites; test: % growth inhibition vs DMSO (48 h luciferase); higher = more inhibition; conditions: 10 µM
[3] = system: Plasmodium falciparum 3D7; test: % inhibition of schizont-to-ring transition vs DMSO; higher = more inhibition
Method in brief: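 Schizont-to-ring transition inhibition is the formation of new rings relative to vehicle controls. Tightly synchronised P. falciparum schizonts at about 40–42 hours post-invasion (1% parasitemia, 2.5% hematocrit, AlbuMAX-supplemented RPMI) were treated with compound at 1, 3 or 10 µM, alongside vehicle and positive controls. After glutaraldehyde fixation, Triton permeabilisation and Hoechst 33342 staining, at least 100,000 events were counted by flow cytometry, and values are the mean of three experiments.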

[4] = system: Toxoplasma gondii RH tachyzoites; test: plaque count per well; higher = less inhibition; extreme values may be limits of the assay; conditions: 10 µM; 8-10 days
Description: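 T. gondii RH tachyzoites expressing firefly luciferase were grown in HFF monolayers for 48 h with compound. % growth inhibition at 10 µM and EC50 (2-fold dilutions from 10 µM) were read by luminescence relative to 1% DMSO; EC50 listed as 10 (not determined, <80% inhibition) is left out. Plaque assays: 50 tachyzoites per well with 10 µM compound for 8-10 days, giving plaque count and area by crystal violet/ImageJ. Egress: median time to egress after 1 µM A23187 ionophore following 24 h of 10 µM compound (DMSO ~1.8 min; >10 = no egress within 10 min).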
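Throughout, for % growth inhibition vs DMSO (48 h luciferase): tested in triplicate wells of 96-well plates on confluent HFF monolayers, with 1% DMSO wells as negative control in four replicates.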

| Structure (SMILES) | EC50 growth inhibition [1] | % growth inhibition [2] | % inhibition of schizont-to-ring transition ([3]; 1 µM) | % inhibition of schizont-to-ring transition ([3]; 3 µM) | % inhibition of schizont-to-ring transition ([3]; 10 µM) | plaque count per well [4] |
| --- | --- | --- | --- | --- | --- | --- |
| Cc1cc(C)c2nc(N3CCC(C(=O)NCCCN4CCC(N5CCCCC5)CC4)CC3)sc2c1 | 1080 nM | < 0% | 18.8% | 46.7% | 59.8% | 16 |
| COc1ccc(-c2cc3c(nn2)-c2ccccc2C3=O)cc1 | 781 nM | < 0% | 14.8% | 34.7% | 50.6% | 29 |
| CCN(CC)CCNc1ncnc2c1[nH]c1ccc(Br)cc12 | 225 nM | 7.24 ± 12% | 41.8% | 49.9% | 55.8% | 26 |
| COc1ccc(NC(=O)C2c3ccccc3C(=O)N(CC(C)C)C2c2cccs2)cc1 (stereo not given) | 46.9 nM | < 0% | 78.1% | 78% | 76.6% | 27 |
| COc1ccc(-n2ccnc2SCC(=O)Nc2cc(C)ccc2C)c(OC)c1 | 226 nM | < 0% | 41.6% | 49.9% | 56.2% | 31 |
| CCn1c(SCC(=O)Nc2cc(C(F)(F)F)ccc2Cl)nc2ccccc2c1=O | 6480 nM | < 0% | 22.9% | 30.1% | 43.7% | 26 |
| COc1ccc(CN2CCN(Cc3ccccc3)CC2)c(O)c1 | 2170 nM | 11.2 ± 5.4% | 13.1% | 19.6% | 40.3% | 29 |
| CN1C=C(c2ccc3ccccc3n2)C(c2c[nH]c3ccccc23)c2ccccc21 (stereo not given) | 638 nM | < 0% | 26.7% | 37.7% | 70.6% | 0 |
| O=C(Nc1ccc(-c2nc3ccccc3[nH]2)cc1)c1ccc(Cl)c(Cl)c1 | 7300 nM | 7.15 ± 8.1% | 6.82% | 10.1% | 44.2% | 23 |
| COc1ccc(OC)c(C2C3=C(CC(C)(C)CC3=O)N(c3ccc(Cl)c(Cl)c3)C3=C2C(=O)CC(C)(C)C3)c1 | 7740 nM | < 0% | 16.9% | 20.7% | 50.7% | 38 |
| Cc1cc(N2CCN(C3CCCC3)CC2)n2c(nc3ccccc32)c1C#N | 878 nM | < 0% | 33.3% | 39.3% | 51.3% | 30 |
| Cc1cc(C=C2SC(=Nc3ccccc3)N(C3CCCC3)C2=O)c(C)n1-c1ccc(Cl)cc1 | 5270 nM | < 0% | 17.8% | 26.2% | 37.9% | 23 |
| COc1ccc(CCNC(=O)c2cc(S(=O)(=O)N3CC(C)CC(C)C3)ccc2Sc2ccc(F)cc2)cc1OC (stereo not given) | – | 11.7 ± 10% | 11.3% | 12.5% | 22.9% | 28 |
| CCOc1cc(Cl)c(C(C)NC(=O)c2cccc(OC)c2)cc1OCC (stereo not given) | 316 nM | < 0% | 42.4% | 76.9% | 78.7% | 25 |
| CCN(CC)S(=O)(=O)c1ccc(-c2csc(Nc3ccc(C)c(C)c3)n2)cc1 | – | 71.8 ± 4.9% | 5.05% | 6.93% | 26.5% | 26 |
| O=C(O)C1Cc2c([nH]c3ccccc23)C(c2ccc(Cl)cc2Cl)N1 (stereo not given) | 1300 nM | < 0% | 8.54% | 18.6% | 26.4% | 32 |

| Structure (SMILES) | EC50 growth inhibition [1] | % growth inhibition [2] | % inhibition of schizont-to-ring transition ([3]; 1 µM) | % inhibition of schizont-to-ring transition ([3]; 3 µM) | % inhibition of schizont-to-ring transition ([3]; 10 µM) | plaque count per well [4] |
| --- | --- | --- | --- | --- | --- | --- |
| Cc1cc(NC(=O)c2cccc(C(F)(F)F)c2)n(-c2nc(-c3ccc4c(c3)OCO4)cs2)n1 | – | < 0% | 13.2% | 16.2% | 18.9% | 26 |
| Cc1cc(=O)oc2c1ccc1oc(C(=O)c3ccccc3)c(C)c12 | 1870 nM | < 0% | 10.7% | 25.9% | 45.3% | 28 |
| CCOc1cc(CNC(C)C(O)c2ccccc2)cc(Cl)c1OCC (stereo not given) | 1060 nM | 15 ± 24% | 2% | 17.2% | 44.2% | 0 |
| Cc1ccc(-c2nc3ccccc3o2)cc1NCc1cc(Cc2ccccc2)ccc1O | – | < 0% | 36.5% | 47.5% | 56.6% | 36 |
| CN(C)c1ccc(N2C(N)=NC(N)=NC2(C)C)cc1 | 5680 nM | < 0% | 7.46% | 13.2% | 46.8% | 23 |
| CCn1c(CN2CCN(Cc3ccccc3)CC2)nc2cc(NC(=O)c3cccs3)ccc21 | 615 nM | < 0% | 40.6% | 47.9% | 56% | 0 |
| CCc1ccc(Nc2cc(C)nc3nc(C)nn23)cc1 | 2280 nM | < 0% | 7.01% | 30% | 50.7% | 27 |
| CCCCCCOC(=O)C1=C(C)NC(=O)NC1c1ccccc1F (stereo not given) | – | < 0% | 32.7% | 32.8% | 40.9% | 31 |
| CCOc1ccccc1NC(=O)CN1CCN(C(=O)c2ccco2)CC1 | – | < 0% | 43.4% | 49.8% | 60% | 35 |
| CN1CCN(c2nc(Nc3ccc(O)cc3)nc3ccccc23)CC1 | 1260 nM | < 0% | 34.7% | 33.4% | 52.2% | 29 |
| CCOc1ccc(N2C(N)=NC(N)=NC2(C)C)cc1 | 9760 nM | < 0% | 5.22% | 7.7% | 16% | 28 |
| CCOC(=O)C1CCN(C(=O)CN2C(=O)c3ccccc3C2c2c[nH]c3ccccc23)CC1 (stereo not given) | 971 nM | < 0% | 15.7% | 32.3% | 65.4% | 31 |
| Cc1ccc(CSCc2ccc(C(=O)NC3CC3)o2)cc1 | 1000 nM | 3.19 ± 5.5% | 14.1% | 44.2% | 67.4% | 25 |
| O=C(CCc1ccco1)NC1CCN(CC2(c3ccc(Cl)cc3)CCC2)CC1 | 509 nM | < 0% | 18.8% | 41% | 67.5% | 23 |
| COc1ccc2nc(C)cc(Nc3cccc(O)c3)c2c1 | 845 nM | 19.7 ± 6.3% | 42.3% | 59.4% | 64% | 0 |
